Entries after “also recorded” stand apart in the source; their conditions may differ.
Assays:
Format in all cases: in vivo, rat
[1] = test system: memory-deficient model rats; assay: Passive avoidance test in memory-deficient model rats
Description: (§1) Ibotenic acid is a neurotoxin present in mushrooms and is known to cause powerful damage to neurons when directly injected into the brain of mice or rats. In particular, because senile plaques and neuronal cell death appear in the entorhinal cortex and hippocampus in early Alzheimer's disease patients (Ueki A et al. J Neurol Sci, 1994), memory-deficient model rats were generated by injecting ibotenic acid (IBO) into the entorhinal cortex. The surgical protocol followed Heo H et al.'s method (J Ethnopharmacol, 2009) with some modifications. In the model animals, the injection of ibotenic acid induces cell death not only in the entorhinal cortex but also in the CA and DG regions of the hippocampus and impairs hippocampus-related learning and memory abilities.
The 6-week-old rats were anesthetized with equithesin (350 mM pentobarbital sodium, 250 mM chloral hydrate, 85 mM MgSO4 and 40% propylene glycol in 10% ethanol, 2 mL/kg). […]
The passive avoidance was carried out as described in Heo H et al. (J Ethnopharmacol, 2009), with the same number of animals per group as the Y-maze test. […] Exactly 24 hours after the acquisition trial, the rats were placed in the lighted chamber again and the latency time to enter the dark chamber was measured for 720 seconds (retention trial). […]

[2] = test system: memory-deficient model rats; assay: Morris water maze test in memory-deficient model rats; settings: Experimental Example 2
Description: as §1
The 6-week-old rats were anesthetized with equithesin (350 mM pentobarbital sodium, 250 mM chloral hydrate, 85 mM MgSO4 and 40% propylene glycol in 10% ethanol, 2 mL/kg). To induce cell death in the dentate gyrus and hippocampus in addition to the entorhinal cortex, ibotenic acid (1.5 μL per animal, 1 mg/mL) was injected into the entorhinal cortex as follows. The rat was placed in a stereotaxic device (Stoelting Co., Wood Dale, Ill., USA) with the incisor bar 3.4 mm below the interaural line. The needle was positioned 10° right to the midsaggital plane. […]
For each trial, the rat was allowed to swim for a maximum of 60 seconds to find the platform and to rest for 1 minute on the platform upon success. […] The swimming time and length of the trial were recorded and monitored using a video camera. […] The captured video images were analyzed by a video tracking system (EthoVision Water Maze program, Noldus Information Technology, Wageningen, the Netherlands). The analyzed information included the swimming time in the target quadrant and the number of virtual platform crossings to find the removed platform. […]

[3] = test system: GAD67-, VGluT1-, ChAT-positive neurons and OX42 reactive microglia in the hippocampus; assay: Immunohistochemical analysis of GAD67, VGluT1, ChAT, OX42 in hippocampus (Experimental Example 1)
Experimental: Immunostaining was carried out using antibodies against VGluT1 (diluted 1:500, Chemicon), ChAT (1:500, Chemicon), GFAP (1:1,000, Chemicon), tyrosine hydroxylase (TH, 1:500, Chemicon) and OX42 (CD11b/c, 1:250, Serotec) as primary antibodies instead of the anti-BrdU antibodies used in (4). The other process was the same as in (4), except that incubation was performed at 37° C. for 30 minutes in 2 N HCl.
In the immunohistochemical analysis, the number of the cells immnunostained against each antibody was counted from 5 or 6 hippocampal coronal sections. For each staining analysis, every fifth cryosections of the hippocampal region of brain tissues (AP: bregma −4.5 to −4.3 mm) were taken for immunostaining. The number of the immnunostained cells was represented as an average of number of cells in the hippocampal region of one brain slice.
The number of the VGluT1- and GAD-positive cells in the brain slice samples 1 week and 4 weeks after the administration of soyasaponin I was presented per microscopic field (×400-VGluT1, ×800-GAD67) and the number of the ChAT-positive cells was presented per each hippocampal region (10-12 confocal laser microscopic fields). 5-11 animals were used per group. Western blotted membranes were analyzed using the multi-gauge, bio-imaging program on LAS-4000 Mini (Fujifilm Life Science, Stamford, Conn., USA). Densitometeric analysis of the expression ratios of VGluT1/β-actin, GAD65/67/β-actin and ChAT/β-actin was normalized to the vehicle group.

C[C@@H]1O[C@@H](O[C@H]2[C@H](O[C@H]3[C@H](O[C@H]4CC[C@@]5(C)[C@@H](CC[C@]6(C)[C@@H]5CC=C5[C@@H]7CC(C)(C)C[C@@H](O)[C@]7(C)CC[C@]56C)[C@@]4(C)CO)O[C@H](C(=O)O)[C@@H](O)[C@@H]3O)O[C@H](CO)[C@H](O)[C@@H]2O)[C@H](O)[C@H](O)[C@H]1O [soyasaponin I]
Passive avoidance latency time, relative to that of the normal group ([1]; 10 mg/kg oral, tests 2 weeks after administration (Experimental Example 2)): 89.65%
Passive avoidance latency time ([1]; Experimental Example 1, retention trial 24 hours after shock): improvement in latency time
Morris water maze number of crossings across the target probe ([2]; probe trial session): recovery to almost those of the normal group
Morris water maze swimming time in the target quadrant ([2]; probe trial session): recovery to almost those of the normal group
Morris water maze escape latency time compared to the ibotenic acid-administered group ([2]; training trial, third and fourth days): decreased
Number of VGluT1-positive cells ([3]; 10 mg/kg oral): 57.33±2.43 cells per microscopic field
Number of VGluT1-positive cells compared to the IBO group ([3]; 5, 10, 20 mg/kg oral): increased up to the level of the normal group
OX42 (reactive microglia) intensity normalized to the normal group ([3]; DG and CA1 regions, 5, 10, 20 mg/kg): decreased in a dose-dependent manner; also recorded: decreased again to the level of the normal model

— patent publication US20150307841A1, “Composition for Promoting Differentiation and Proliferation of Neural Stem Cell and Neural Precursor Cell” (priority 2014, published 2015)
